Laboratory results: ChEMBL document CHEMBL3044662, “Synthesis and potential antibacterial activity of new rhodanine-3-acetic acid derivatives” (2013)
≈ marks a conversion by molar mass, not a printed value.

Tests used:
Format in all cases: functional
Staphylococcus aureus [1] = assay: Antibacterial activity against Staphylococcus aureus subsp. aureus RN4220 assessed as growth inhibition after 20 hr by two-fold serial dilution method; details: RN4220, 20 h
Staphylococcus aureus [2] = assay: Antibacterial activity against Staphylococcus aureus KCTC 503 assessed as growth inhibition after 20 hr by two-fold serial dilution method; details: KCTC 503, 20 h
Escherichia coli [3] = assay: Antibacterial activity against Escherichia coli CCARM 1924 assessed as growth inhibition after 20 hr by two-fold serial dilution method; details: CCARM 1924, 20 h
Escherichia coli [4] = assay: Antibacterial activity against Escherichia coli CCARM 1356 assessed as growth inhibition after 20 hr by two-fold serial dilution method; details: CCARM 1356, 20 h
Staphylococcus aureus [5] = assay: Antibacterial activity against quinolene-resistant Staphylococcus aureus CCARM 3519 clinical isolate assessed as growth inhibition after 20 hr by two-fold serial dilution method; details: CCARM 3519, 20 h
Staphylococcus aureus [6] = assay: Antibacterial activity against methicillin-resistant Staphylococcus aureus CCARM 3506 clinical isolate assessed as growth inhibition after 20 hr by two-fold serial dilution method; details: CCARM 3506, 20 h
Staphylococcus aureus [7] = assay: Antibacterial activity against quinolene-resistant Staphylococcus aureus CCARM 3505 clinical isolate assessed as growth inhibition after 20 hr by two-fold serial dilution method; details: CCARM 3505, 20 h
Staphylococcus aureus [8] = assay: Antibacterial activity against methicillin-resistant Staphylococcus aureus CCARM 3167 clinical isolate assessed as growth inhibition after 20 hr by two-fold serial dilution method; details: CCARM 3167, 20 h

Row | Structure (SMILES) | MIC (Staphylococcus aureus [1]) | MIC (Staphylococcus aureus [2]) | MIC (Escherichia coli [3]) | MIC (Escherichia coli [4]) | MIC (Staphylococcus aureus [5]) | MIC (Staphylococcus aureus [6]) | MIC (Staphylococcus aureus [7]) | MIC (Staphylococcus aureus [8])
1 | N#Cc1ccccc1COc1ccc2cc(/C=C3\SC(=S)N(CC(=O)O)C3=O)ccc2c1 | > 64 µg/mL | > 64 µg/mL | > 64 µg/mL | > 64 µg/mL | – | – | – | –
2 | O=C(O)CN1C(=O)/C(=C/c2ccc3cc(OCc4ccc([N+](=O)[O-])cc4)ccc3c2)SC1=S | 64 µg/mL (≈ 133 µM) | 32 µg/mL (≈ 66.6 µM) | > 64 µg/mL | > 64 µg/mL | 4 µg/mL (≈ 8.32 µM) | 8 µg/mL (≈ 16.6 µM) | 8 µg/mL (≈ 16.6 µM) | 4 µg/mL (≈ 8.32 µM)
3 | CCn1cc(C(=O)O)c(=O)c2cc(F)c(N3CCNCC3)cc21 [NORFLOXACIN] | 2 µg/mL (≈ 6.26 µM) | 2 µg/mL (≈ 6.26 µM) | 16 µg/mL (≈ 50.1 µM) | 16 µg/mL (≈ 50.1 µM) | > 64 µg/mL | 4 µg/mL (≈ 12.5 µM) | > 64 µg/mL | 8 µg/mL (≈ 25.1 µM)
4 | COc1cccc(COc2ccc3cc(/C=C4\SC(=S)N(CC(=O)O)C4=O)ccc3c2)c1 | > 64 µg/mL | > 64 µg/mL | > 64 µg/mL | > 64 µg/mL | – | – | – | –
5 | COc1ccc(COc2ccc3cc(/C=C4\SC(=S)N(CC(=O)O)C4=O)ccc3c2)cc1 | 4 µg/mL (≈ 8.59 µM) | 8 µg/mL (≈ 17.2 µM) | > 64 µg/mL | > 64 µg/mL | 8 µg/mL (≈ 17.2 µM) | 2 µg/mL (≈ 4.3 µM) | – | 2 µg/mL (≈ 4.3 µM)
6 | O=C(O)CN1C(=O)/C(=C/c2ccc3cc(OCc4ccc(Br)cc4)ccc3c2)SC1=S | 2 µg/mL (≈ 3.89 µM) | 2 µg/mL (≈ 3.89 µM) | > 64 µg/mL | > 64 µg/mL | 4 µg/mL (≈ 7.78 µM) | 1 µg/mL (≈ 1.94 µM) | 4 µg/mL (≈ 7.78 µM) | 1 µg/mL (≈ 1.94 µM)
7 | Cc1ccc(COc2ccc3cc(/C=C4\SC(=S)N(CC(=O)O)C4=O)ccc3c2)cc1 | 2 µg/mL (≈ 4.45 µM) | 4 µg/mL (≈ 8.9 µM) | > 64 µg/mL | > 64 µg/mL | 8 µg/mL (≈ 17.8 µM) | 4 µg/mL (≈ 8.9 µM) | 4 µg/mL (≈ 8.9 µM) | 2 µg/mL (≈ 4.45 µM)
8 | O=C(O)CN1C(=O)/C(=C/c2ccc3cc(OCc4cccc(Cl)c4)ccc3c2)SC1=S | > 64 µg/mL | > 64 µg/mL | > 64 µg/mL | > 64 µg/mL | – | – | – | –
9 | O=C(O)CN1C(=O)/C(=C/c2ccc3cc(OCc4ccc(Cl)cc4)ccc3c2)SC1=S | 2 µg/mL (≈ 4.26 µM) | 4 µg/mL (≈ 8.51 µM) | > 64 µg/mL | > 64 µg/mL | 4 µg/mL (≈ 8.51 µM) | 2 µg/mL (≈ 4.26 µM) | 4 µg/mL (≈ 8.51 µM) | 2 µg/mL (≈ 4.26 µM)
10 | O=C(O)CN1C(=O)/C(=C/c2ccc3cc(OCc4cccc(Br)c4)ccc3c2)SC1=S | 32 µg/mL (≈ 62.2 µM) | 64 µg/mL (≈ 124 µM) | > 64 µg/mL | > 64 µg/mL | > 64 µg/mL | 64 µg/mL (≈ 124 µM) | > 64 µg/mL | 64 µg/mL (≈ 124 µM)
11 | O=C(O)CN1C(=O)/C(=C/c2ccc3cc(OCc4cccc(F)c4)ccc3c2)SC1=S | > 64 µg/mL | > 64 µg/mL | > 64 µg/mL | > 64 µg/mL | – | – | – | –
12 | Cc1onc(-c2ccccc2)c1C(=O)N[C@@H]1C(=O)N2[C@@H]1SC(C)(C)[C@@H]2C(=O)O [OXACILLIN] | 1 µg/mL (≈ 2.49 µM) | 1 µg/mL (≈ 2.49 µM) | > 64 µg/mL | > 64 µg/mL | 1 µg/mL (≈ 2.49 µM) | > 64 µg/mL | 1 µg/mL (≈ 2.49 µM) | > 64 µg/mL
13 | O=C(O)CN1C(=O)/C(=C/c2ccc3cc(OCc4cccc(C(F)(F)F)c4)ccc3c2)SC1=S | > 64 µg/mL | > 64 µg/mL | > 64 µg/mL | > 64 µg/mL | – | – | – | –
14 | Cc1ccc(COc2ccc3cc(/C=C4\SC(=S)N(CC(=O)O)C4=O)ccc3c2)cc1C | > 64 µg/mL | > 64 µg/mL | > 64 µg/mL | > 64 µg/mL | – | – | – | –
15 | O=C(O)CN1C(=O)/C(=C/c2ccc3cc(OCc4ccc(F)cc4)ccc3c2)SC1=S | 4 µg/mL (≈ 8.82 µM) | 4 µg/mL (≈ 8.82 µM) | > 64 µg/mL | > 64 µg/mL | 4 µg/mL (≈ 8.82 µM) | 2 µg/mL (≈ 4.41 µM) | 4 µg/mL (≈ 8.82 µM) | 4 µg/mL (≈ 8.82 µM)
16 | O=C(O)CN1C(=O)/C(=C/c2ccc3cc(O)ccc3c2)SC1=S | > 64 µg/mL | > 64 µg/mL | > 64 µg/mL | > 64 µg/mL | – | – | – | –
17 | CN(C)c1ccc(COc2ccc3cc(/C=C4\SC(=S)N(CC(=O)O)C4=O)ccc3c2)cc1 | 64 µg/mL (≈ 134 µM) | 64 µg/mL (≈ 134 µM) | > 64 µg/mL | > 64 µg/mL | > 64 µg/mL | > 64 µg/mL | > 64 µg/mL | > 64 µg/mL
18 | N#Cc1ccc(COc2ccc3cc(/C=C4\SC(=S)N(CC(=O)O)C4=O)ccc3c2)cc1 | > 64 µg/mL | > 64 µg/mL | > 64 µg/mL | > 64 µg/mL | – | – | – | –
19 | COc1ccc(COc2ccc3cc(/C=C4\SC(=S)N(CC(=O)O)C4=O)ccc3c2)cc1OC | 4 µg/mL (≈ 8.07 µM) | 8 µg/mL (≈ 16.1 µM) | > 64 µg/mL | > 64 µg/mL | 8 µg/mL (≈ 16.1 µM) | 8 µg/mL (≈ 16.1 µM) | 8 µg/mL (≈ 16.1 µM) | 8 µg/mL (≈ 16.1 µM)
20 | O=C(O)CN1C(=O)/C(=C/c2ccc3cc(OCc4ccc(C(F)(F)F)cc4)ccc3c2)SC1=S | 4 µg/mL (≈ 7.94 µM) | 4 µg/mL (≈ 7.94 µM) | > 64 µg/mL | > 64 µg/mL | 64 µg/mL (≈ 127 µM) | 2 µg/mL (≈ 3.97 µM) | 64 µg/mL (≈ 127 µM) | 2 µg/mL (≈ 3.97 µM)
21 | O=C(O)CN1C(=O)/C(=C/c2ccc3cc(OCc4ccc(Cl)cc4Cl)ccc3c2)SC1=S | > 64 µg/mL | > 64 µg/mL | > 64 µg/mL | > 64 µg/mL | – | – | – | –
22 | O=C(O)CN1C(=O)/C(=C/c2ccc3cc(OCc4c(Cl)cccc4Cl)ccc3c2)SC1=S | > 64 µg/mL | > 64 µg/mL | > 64 µg/mL | > 64 µg/mL | – | – | – | –
23 | O=C(O)CN1C(=O)/C(=C/c2ccc3cc(OCc4ccccc4Br)ccc3c2)SC1=S | > 64 µg/mL | > 64 µg/mL | > 64 µg/mL | > 64 µg/mL | – | – | – | –
24 | O=C(O)CN1C(=O)/C(=C/c2ccc3cc(OCc4ccc(Cl)c(Cl)c4)ccc3c2)SC1=S | > 64 µg/mL | > 64 µg/mL | > 64 µg/mL | > 64 µg/mL | – | – | – | –
25 | O=C(O)CN1C(=O)/C(=C/c2ccc3cc(OCc4ccccc4Cl)ccc3c2)SC1=S | > 64 µg/mL | > 64 µg/mL | > 64 µg/mL | > 64 µg/mL | – | – | – | –
26 | O=C(O)CN1C(=O)/C(=C/c2ccc3cc(OCc4ccccc4)ccc3c2)SC1=S | 64 µg/mL (≈ 147 µM) | 64 µg/mL (≈ 147 µM) | > 64 µg/mL | > 64 µg/mL | 64 µg/mL (≈ 147 µM) | 64 µg/mL (≈ 147 µM) | 64 µg/mL (≈ 147 µM) | 64 µg/mL (≈ 147 µM)
27 | O=C(O)CN1C(=O)CSC1=S [RHODANINE-3-ACETIC ACID] | > 64 µg/mL | > 64 µg/mL | > 64 µg/mL | > 64 µg/mL | – | – | – | –
28 | O=C(O)CN1C(=O)/C(=C/c2ccc3cc(OCc4ccc(I)cc4)ccc3c2)SC1=S | > 64 µg/mL | > 64 µg/mL | > 64 µg/mL | > 64 µg/mL | – | – | – | –
